From article PMC12517324, “Hyperagonism of a Vitamin D Receptor Agonist/Histone Deacetylase Inhibitor Hybrid Molecule” (Journal of Medicinal Chemistry, 2025)

Target: T1, HDAC6 (Homo sapiens, UniProt Q9UBN7)
T1 sequence (Q9UBN7 1-1215): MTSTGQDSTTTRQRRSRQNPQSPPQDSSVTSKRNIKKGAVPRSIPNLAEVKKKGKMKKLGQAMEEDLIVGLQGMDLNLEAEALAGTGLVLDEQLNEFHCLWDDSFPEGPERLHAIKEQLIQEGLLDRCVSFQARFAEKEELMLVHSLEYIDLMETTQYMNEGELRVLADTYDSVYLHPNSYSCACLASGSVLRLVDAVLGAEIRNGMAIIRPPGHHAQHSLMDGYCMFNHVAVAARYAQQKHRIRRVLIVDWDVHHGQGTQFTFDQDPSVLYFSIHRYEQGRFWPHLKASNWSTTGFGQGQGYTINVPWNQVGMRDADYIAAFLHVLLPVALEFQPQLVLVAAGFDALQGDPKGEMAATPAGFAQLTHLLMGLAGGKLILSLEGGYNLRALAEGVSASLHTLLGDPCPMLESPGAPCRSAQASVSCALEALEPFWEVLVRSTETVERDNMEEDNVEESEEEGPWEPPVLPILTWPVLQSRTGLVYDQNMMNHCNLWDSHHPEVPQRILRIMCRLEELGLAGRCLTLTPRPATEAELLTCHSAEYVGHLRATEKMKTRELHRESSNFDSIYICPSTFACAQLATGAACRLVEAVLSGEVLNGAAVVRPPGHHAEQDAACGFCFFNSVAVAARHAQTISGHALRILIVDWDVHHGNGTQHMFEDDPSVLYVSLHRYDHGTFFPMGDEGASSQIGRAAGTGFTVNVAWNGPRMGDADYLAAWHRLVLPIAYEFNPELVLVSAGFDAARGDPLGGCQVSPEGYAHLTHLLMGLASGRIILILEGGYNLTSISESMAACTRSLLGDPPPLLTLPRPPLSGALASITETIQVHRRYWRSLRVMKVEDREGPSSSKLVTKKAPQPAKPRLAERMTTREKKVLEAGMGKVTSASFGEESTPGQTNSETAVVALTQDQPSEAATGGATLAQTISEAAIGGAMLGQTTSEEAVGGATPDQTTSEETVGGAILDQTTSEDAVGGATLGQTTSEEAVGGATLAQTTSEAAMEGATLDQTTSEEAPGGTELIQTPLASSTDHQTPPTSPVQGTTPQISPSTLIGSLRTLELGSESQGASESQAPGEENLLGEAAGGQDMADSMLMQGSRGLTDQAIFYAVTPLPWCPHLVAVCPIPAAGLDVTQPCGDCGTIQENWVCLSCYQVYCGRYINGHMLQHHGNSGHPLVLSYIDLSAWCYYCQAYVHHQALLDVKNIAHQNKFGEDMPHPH
Assay: Inhibition of purified HDAC6, Boc-Lys(Ac)-AMC substrate
Type: biochemical
Parameters: purchased Cayman Chemical
Details: 1 h 37 °C

IC50: 3.09 µM
SMILES: CCC(CC)(c1ccc(OCCCCCC(=O)NO)cc1)c1ccc(OCC(O)C(C)(C)C)c(C)n1 (stereo not shown) [AM-193]
